Test results published in the supplement of paper PMC10307832.

Legend:
Assay in all cases: relative viability (nuclei count vs DMSO), 5 days (fraction); higher = more cells survive
[1] = compound: Cc1ccccc1C(C(=O)NC1CCCCC1)N(C(=O)Cn1ccnc1C)c1cccc(F)c1 [IDH-C35] + CS(=O)(=O)N1CCN(Cc2cc3nc(-c4cccc5[nH]ncc45)nc(N4CCOCC4)c3s2)CC1 [Pictilisib] (partner 1 µM)
Outline: (§1)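 Lung cancer cell lines were pin-tool dosed in 1536-well plates on the day after seeding, with either a lone drug or a fixed anchor-drug dose plus five library-drug doses (not always all listed) in √10 steps. Nuclei were counted on 4× images after 5 days. Relative viability is the ratio of treated-well to vehicle-well nuclei counts, with each value a median of duplicate plates.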

[2] = compound: CC1=C(C(=NN1)C)CC2=C(C3=C(S2)N(C(=O)N(C3=O)C)CC(C)C)C(=O)N4C[C@@H](CO4)O + COc1cc2c(Oc3ccc(NC(=O)C4(C(=O)Nc5ccc(F)cc5)CC4)cc3F)ccnc2cc1OCCCN1CCOCC1 [Foretinib] (partner 0.25 µM)
Outline: as §1

[3] = compound: CC1=C(C(=NN1)C)CC2=C(C3=C(S2)N(C(=O)N(C3=O)C)CC(C)C)C(=O)N4C[C@@H](CO4)O + C[C@@H](Oc1cc(-c2cnn(C3CCNCC3)c2)cnc1N)c1c(Cl)ccc(F)c1Cl [Crizotinib] (partner 1 µM)
Outline: as §1

[4] = compound: CC1=C(C(=NN1)C)CC2=C(C3=C(S2)N(C(=O)N(C3=O)C)CC(C)C)C(=O)N4C[C@@H](CO4)O + C[C@]1(O)C[C@@H](c2nc(-c3ccc4ccc(-c5ccccc5)nc4c3)c3c(N)nccn32)C1 [Linsitinib] (partner 1 µM)
Outline: as §1

Cell Line: RERF-LC-KJ
- relative viability ([1]; first compound 0.08 µM): 0.53
- relative viability ([1]; first compound 0.253 µM): 0.671
- relative viability ([1]; first compound 0.8 µM): 0.529
- relative viability ([1]; first compound 2.53 µM): 0.554
- relative viability ([1]; first compound 8 µM): 0.509
- relative viability ([2]; first compound 0.0025 µM): 0.866
- relative viability ([2]; first compound 0.007906 µM): 0.942
- relative viability ([2]; first compound 0.025 µM): 0.909
- relative viability ([2]; first compound 0.07906 µM): 0.886
- relative viability ([2]; first compound 0.25 µM): 0.935
- relative viability ([3]; first compound 0.0025 µM): 0.862
- relative viability ([3]; first compound 0.007906 µM): 0.819
- relative viability ([3]; first compound 0.025 µM): 0.823
- relative viability ([3]; first compound 0.07906 µM): 0.865
- relative viability ([3]; first compound 0.25 µM): 0.88
- relative viability ([4]; first compound 0.0025 µM): 0.973
- relative viability ([4]; first compound 0.007906 µM): 0.931
- relative viability ([4]; first compound 0.025 µM): 0.925
- relative viability ([4]; first compound 0.07906 µM): 0.899
- relative viability ([4]; first compound 0.25 µM): 0.95

Cell Line: NCI-H1650
- relative viability ([1]; first compound 0.08 µM): 0.607
- relative viability ([1]; first compound 0.253 µM): 0.576
- relative viability ([1]; first compound 0.8 µM): 0.557
- relative viability ([1]; first compound 2.53 µM): 0.4
- relative viability ([1]; first compound 8 µM): 0.511
- relative viability ([2]; first compound 0.0025 µM): 1.18
- relative viability ([2]; first compound 0.007906 µM): 1.26
- relative viability ([2]; first compound 0.025 µM): 1.52
- relative viability ([2]; first compound 0.07906 µM): 1.18
- relative viability ([2]; first compound 0.25 µM): 1.05
- relative viability ([3]; first compound 0.0025 µM): 1.05
- relative viability ([3]; first compound 0.007906 µM): 1.08
- relative viability ([3]; first compound 0.025 µM): 0.973
- relative viability ([3]; first compound 0.07906 µM): 1.04
- relative viability ([3]; first compound 0.25 µM): 1.06

Cell Line: BEN
- relative viability ([1]; first compound 0.08 µM): 0.545
- relative viability ([1]; first compound 0.253 µM): 0.568
- relative viability ([1]; first compound 0.8 µM): 0.54
- relative viability ([1]; first compound 2.53 µM): 0.54
- relative viability ([1]; first compound 8 µM): 0.505
- relative viability ([2]; first compound 0.0025 µM): 0.666
- relative viability ([2]; first compound 0.007906 µM): 0.629
- relative viability ([2]; first compound 0.025 µM): 0.577
- relative viability ([2]; first compound 0.07906 µM): 0.661
- relative viability ([2]; first compound 0.25 µM): 0.596
- relative viability ([3]; first compound 0.0025 µM): 0.912
- relative viability ([3]; first compound 0.007906 µM): 0.719
- relative viability ([3]; first compound 0.025 µM): 0.75
- relative viability ([3]; first compound 0.07906 µM): 0.604
- relative viability ([3]; first compound 0.25 µM): 0.847
- relative viability ([4]; first compound 0.0025 µM): 0.932
- relative viability ([4]; first compound 0.007906 µM): 0.79
- relative viability ([4]; first compound 0.025 µM): 0.762
- relative viability ([4]; first compound 0.07906 µM): 0.663
- relative viability ([4]; first compound 0.25 µM): 0.862

Cell Line: EMC-BAC-2
- relative viability ([1]; first compound 0.08 µM): 0.493
- relative viability ([1]; first compound 0.253 µM): 0.55
- relative viability ([1]; first compound 0.8 µM): 0.51
- relative viability ([1]; first compound 2.53 µM): 0.487
- relative viability ([1]; first compound 8 µM): 0.521
- relative viability ([2]; first compound 0.0025 µM): 1.04
- relative viability ([2]; first compound 0.007906 µM): 1.09
- relative viability ([2]; first compound 0.025 µM): 1.07
- relative viability ([2]; first compound 0.07906 µM): 1.08
- relative viability ([2]; first compound 0.25 µM): 1.04
- relative viability ([3]; first compound 0.0025 µM): 0.806
- relative viability ([3]; first compound 0.007906 µM): 0.866
- relative viability ([3]; first compound 0.025 µM): 0.753
- relative viability ([3]; first compound 0.07906 µM): 0.788
- relative viability ([3]; first compound 0.25 µM): 0.866
- relative viability ([4]; first compound 0.0025 µM): 0.816
- relative viability ([4]; first compound 0.007906 µM): 0.892
- relative viability ([4]; first compound 0.025 µM): 0.821
- relative viability ([4]; first compound 0.07906 µM): 0.826
- relative viability ([4]; first compound 0.25 µM): 0.881

Cell Line: LU99A
- relative viability ([1]; first compound 0.08 µM): 0.337
- relative viability ([1]; first compound 0.253 µM): 0.299
- relative viability ([1]; first compound 0.8 µM): 0.326
- relative viability ([1]; first compound 2.53 µM): 0.317
- relative viability ([1]; first compound 8 µM): 0.361
- relative viability ([2]; first compound 0.0025 µM): 0.901
- relative viability ([2]; first compound 0.007906 µM): 0.943
- relative viability ([2]; first compound 0.025 µM): 0.766
- relative viability ([2]; first compound 0.07906 µM): 0.768
- relative viability ([2]; first compound 0.25 µM): 0.747
- relative viability ([3]; first compound 0.0025 µM): 0.542
- relative viability ([3]; first compound 0.007906 µM): 0.592
- relative viability ([3]; first compound 0.025 µM): 0.533
- relative viability ([3]; first compound 0.07906 µM): 0.566
- relative viability ([3]; first compound 0.25 µM): 0.648
- relative viability ([4]; first compound 0.0025 µM): 0.592
- relative viability ([4]; first compound 0.007906 µM): 0.542
- relative viability ([4]; first compound 0.025 µM): 0.522
- relative viability ([4]; first compound 0.07906 µM): 0.583
- relative viability ([4]; first compound 0.25 µM): 0.567

Cell Line: ABC-1
- relative viability ([1]; first compound 0.08 µM): 0.675
- relative viability ([1]; first compound 0.253 µM): 0.667
- relative viability ([1]; first compound 0.8 µM): 0.617
- relative viability ([1]; first compound 2.53 µM): 0.984
- relative viability ([1]; first compound 8 µM): 0.908
- relative viability ([2]; first compound 0.0025 µM): 1.02
- relative viability ([2]; first compound 0.007906 µM): 1.06
- relative viability ([2]; first compound 0.025 µM): 0.955
- relative viability ([2]; first compound 0.07906 µM): 1.07
- relative viability ([2]; first compound 0.25 µM): 1
- relative viability ([3]; first compound 0.0025 µM): 1.24
- relative viability ([3]; first compound 0.007906 µM): 0.905
- relative viability ([3]; first compound 0.025 µM): 1.01
- relative viability ([3]; first compound 0.07906 µM): 0.956
- relative viability ([3]; first compound 0.25 µM): 0.992
- relative viability ([4]; first compound 0.0025 µM): 0.676
- relative viability ([4]; first compound 0.007906 µM): 0.793
- relative viability ([4]; first compound 0.025 µM): 0.905
- relative viability ([4]; first compound 0.07906 µM): 1.27
- relative viability ([4]; first compound 0.25 µM): 0.8

Cell Line: NCI-H2170
- relative viability ([1]; first compound 0.08 µM): 0.33
- relative viability ([1]; first compound 0.253 µM): 0.378
- relative viability ([1]; first compound 0.8 µM): 0.332
- relative viability ([1]; first compound 2.53 µM): 0.342
- relative viability ([1]; first compound 8 µM): 0.336
- relative viability ([2]; first compound 0.0025 µM): 0.989
- relative viability ([2]; first compound 0.007906 µM): 1.09
- relative viability ([2]; first compound 0.025 µM): 0.984
- relative viability ([2]; first compound 0.07906 µM): 0.972
- relative viability ([2]; first compound 0.25 µM): 1.08
- relative viability ([3]; first compound 0.0025 µM): 1.19
- relative viability ([3]; first compound 0.007906 µM): 1.37
- relative viability ([3]; first compound 0.025 µM): 1.24
- relative viability ([3]; first compound 0.07906 µM): 1.13
- relative viability ([3]; first compound 0.25 µM): 1.26

Cell Line: NCI-H1299
- relative viability ([1]; first compound 0.08 µM): 0.818
- relative viability ([1]; first compound 0.253 µM): 0.671
- relative viability ([1]; first compound 0.8 µM): 0.96
- relative viability ([1]; first compound 2.53 µM): 0.759
- relative viability ([1]; first compound 8 µM): 0.745
- relative viability ([2]; first compound 0.0025 µM): 1.06
- relative viability ([2]; first compound 0.007906 µM): 1.11
- relative viability ([2]; first compound 0.025 µM): 1.06
- relative viability ([2]; first compound 0.07906 µM): 1.1
- relative viability ([2]; first compound 0.25 µM): 1.09
- relative viability ([3]; first compound 0.0025 µM): 0.961
- relative viability ([3]; first compound 0.007906 µM): 0.993
- relative viability ([3]; first compound 0.025 µM): 0.923
- relative viability ([3]; first compound 0.07906 µM): 0.941
- relative viability ([3]; first compound 0.25 µM): 0.948
- relative viability ([4]; first compound 0.0025 µM): 1.03
- relative viability ([4]; first compound 0.007906 µM): 0.875
- relative viability ([4]; first compound 0.025 µM): 0.926
- relative viability ([4]; first compound 0.07906 µM): 1
- relative viability ([4]; first compound 0.25 µM): 1.06
